Results: ChEMBL document CHEMBL1201862, “PubChem BioAssay data set” (2004)
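48-hour exposure; five concentrations; linearly interpolated endpoints. GI50: concentration for 50% inhibition of growth.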 Activity calls are given as the source filed them. Cut-off read from the data, not from the text of the source: active = GI50 up to about 1.1 µM and inactive = higher.

What was measured:
Assay in all cases: NCI-60 cell line screen, 48 h
HCT-15 = test system: HCT-15
T47D = test system: T47D
SF-539 = test system: SF-539
HT-29 = test system: HT-29
Malme-3M = test system: Malme-3M
PC-3 = test system: PC-3
OVCAR-8 = test system: OVCAR-8
SW-620 = test system: SW-620
SK-OV-3 = test system: SK-OV-3
OVCAR-3 = test system: OVCAR-3
OVCAR-4 = test system: OVCAR-4
TK-10 = test system: TK-10
NCI-H226 = test system: NCI-H226
UO-31 = test system: UO-31
DU-145 = test system: DU-145
U-251 = test system: U-251
CAKI-1 = test system: CAKI-1
NCI-H460 = test system: NCI-H460
MDA-MB-435 = test system: MDA-MB-435
RPMI-8226 = test system: RPMI-8226

Row | SMILES | GI50 (HCT-15) [µM] | GI50 (T47D) | GI50 (SF-539) | GI50 (HT-29) | GI50 (Malme-3M) | GI50 (PC-3) | GI50 (OVCAR-8) | GI50 (SW-620) | GI50 (SK-OV-3) | GI50 (OVCAR-3) | GI50 (OVCAR-4) | GI50 (TK-10) | GI50 (NCI-H226) | GI50 (UO-31) | GI50 (DU-145) | GI50 (U-251) | GI50 (CAKI-1) | GI50 (NCI-H460) | GI50 (MDA-MB-435) | GI50 (RPMI-8226)
1 | Oc1cc(-c2ccc(Cl)cc2)cn2c1nc1ccccc12 | > 100 | > 100 µM (inactive) | > 100 µM (inactive) | > 100 µM (inactive) | > 100 µM (inactive) | > 100 µM (inactive) | 17.6 µM (inactive) | 6.46 µM (inactive) | > 100 µM (inactive) | > 100 µM (inactive) | > 100 µM (inactive) | > 100 µM (inactive) | > 100 µM (inactive) | > 100 µM (inactive) | > 100 µM (inactive) | 6.59 µM (inactive) | > 100 µM (inactive) | 5.21 µM (inactive) | 2.2 µM (inactive) | 
2 | CC1(C)OP(=O)(O)C=C1Sc1ccc([N+](=O)[O-])cc1[N+](=O)[O-] | > 100 | > 100 µM (inactive) | > 100 µM (inactive) | 45.7 µM (inactive) | > 100 µM (inactive) | > 100 µM (inactive) | > 100 µM (inactive) | > 100 µM (inactive) | > 100 µM (inactive) | > 100 µM (inactive) | > 100 µM (inactive) | > 100 µM (inactive) | > 100 µM (inactive) |  | > 100 µM (inactive) | > 100 µM (inactive) | > 100 µM (inactive) | > 100 µM (inactive) | > 100 µM (inactive) | 
3 | CNC(=S)N/N=C(\C)c1cc(OC)c(OC)cc1O | > 100 | > 100 µM (inactive) | > 100 µM (inactive) | > 100 µM (inactive) | > 100 µM (inactive) | > 100 µM (inactive) | > 100 µM (inactive) | > 100 µM (inactive) | > 100 µM (inactive) | > 100 µM (inactive) |  | > 100 µM (inactive) |  | > 100 µM (inactive) | > 100 µM (inactive) | > 100 µM (inactive) | > 100 µM (inactive) | > 100 µM (inactive) | > 100 µM (inactive) | > 100 µM (inactive)
4 | COc1ccc(-c2nc(SCC(=O)N/N=C/c3ccc([N+](=O)[O-])cc3)[nH]c2-c2ccc(OC)cc2)cc1 | 8.55 | 15.8 µM (inactive) | 11.9 µM (inactive) | 8.41 µM (inactive) | 17.5 µM (inactive) | 6.49 µM (inactive) | 17.7 µM (inactive) | 12.6 µM (inactive) | 20.2 µM (inactive) | 10.4 µM (inactive) | 39.4 µM (inactive) | 22.3 µM (inactive) |  | 18.8 µM (inactive) | 28 µM (inactive) | 11.7 µM (inactive) | 28.1 µM (inactive) | 10.3 µM (inactive) | 3.24 µM (inactive) | 8.91 µM (inactive)
5 | CC(=O)Nc1ccc2cc(C)c(O)nc2n1 | > 100 | > 100 µM (inactive) | > 100 µM (inactive) | > 100 µM (inactive) | > 100 µM (inactive) | > 100 µM (inactive) | > 100 µM (inactive) | > 100 µM (inactive) | > 100 µM (inactive) |  | > 100 µM (inactive) | > 100 µM (inactive) |  | > 100 µM (inactive) | > 100 µM (inactive) | > 100 µM (inactive) | > 100 µM (inactive) | > 100 µM (inactive) | > 100 µM (inactive) | > 100 µM (inactive)
6 | CCCOC(=O)C1C2CCC(O2)C1C(=O)O (stereo unspecified) | > 100 | > 100 µM (inactive) |  | > 100 µM (inactive) | > 100 µM (inactive) | > 100 µM (inactive) | > 100 µM (inactive) | > 100 µM (inactive) | 61 µM (inactive) | > 100 µM (inactive) | > 100 µM (inactive) | > 100 µM (inactive) | > 100 µM (inactive) | > 100 µM (inactive) | > 100 µM (inactive) | > 100 µM (inactive) | > 100 µM (inactive) |  | > 100 µM (inactive) | > 100 µM (inactive)
7 | CCCC/C=C1\CCC(CN2CCCCC2)C1=O (stereo unspecified) | 9.06 | > 100 µM (inactive) | 19 µM (inactive) | 10.9 µM (inactive) | 8.55 µM (inactive) | > 100 µM (inactive) | 12.8 µM (inactive) | 7.91 µM (inactive) | > 42.1 µM (inactive) | 29.8 µM (inactive) | 30.5 µM (inactive) | 12.4 µM (inactive) | 26.5 µM (inactive) | 32.8 µM (inactive) | > 100 µM (inactive) | 29.2 µM (inactive) | 9.48 µM (inactive) | 33.6 µM (inactive) | > 100 µM (inactive) | 
8 | CCC1CCN=C(Cn2cc(C)c(=O)[nH]c2=O)N1 (stereo unspecified) | > 100 | > 100 µM (inactive) |  | > 100 µM (inactive) | > 100 µM (inactive) | > 100 µM (inactive) | > 100 µM (inactive) | > 100 µM (inactive) | > 100 µM (inactive) |  |  | > 100 µM (inactive) | > 100 µM (inactive) | > 100 µM (inactive) | > 100 µM (inactive) | > 100 µM (inactive) |  | > 100 µM (inactive) |  | 
9 | COc1cc(/C=C2/SC(c3ccccc3)N(c3ccccc3)C2=O)cc(OC)c1OC (stereo unspecified) | 61.7 | 36.2 µM (inactive) | > 100 µM (inactive) |  | 80.2 µM (inactive) |  | 76.4 µM (inactive) | > 100 µM (inactive) | 35.8 µM (inactive) | 65.6 µM (inactive) | 69.5 µM (inactive) | > 100 µM (inactive) | 80.4 µM (inactive) | 29.5 µM (inactive) | > 100 µM (inactive) | 59.6 µM (inactive) | > 100 µM (inactive) | 76 µM (inactive) | 33.4 µM (inactive) | 9.66 µM (inactive)
10 | Oc1ccc(-c2nc(-c3ccc4ccccc4n3)c(-c3ccc(F)cc3)[nH]2)cc1 | 10.7 | 7.11 µM (inactive) |  | 7.55 µM (inactive) | 13.7 µM (inactive) | 9.08 µM (inactive) | 12.5 µM (inactive) | 14.3 µM (inactive) | 15.3 µM (inactive) | 6.19 µM (inactive) | 11.2 µM (inactive) | 13.2 µM (inactive) | 14.2 µM (inactive) | 11.6 µM (inactive) | 15.5 µM (inactive) | 10.6 µM (inactive) | 13.6 µM (inactive) | 5.45 µM (inactive) | 12.2 µM (inactive) | 5.62 µM (inactive)
11 | Cc1cn(CC2=NCCN2)c(=O)[nH]c1=O | > 100 | > 100 µM (inactive) |  | > 100 µM (inactive) | > 100 µM (inactive) | > 100 µM (inactive) | > 100 µM (inactive) | > 100 µM (inactive) | > 100 µM (inactive) |  | > 100 µM (inactive) | > 100 µM (inactive) | > 100 µM (inactive) | > 100 µM (inactive) | > 100 µM (inactive) | > 100 µM (inactive) | > 100 µM (inactive) | > 100 µM (inactive) | > 100 µM (inactive) | > 100 µM (inactive)
12 | C[C@@]1(CO)[C@H](O)CC[C@@]2(C)[C@H]1CC[C@H]1C[C@@H]3C[C@@]12CC[C@@]3(O)COC(=O)CN |  | 11.4 µM (inactive) |  | 9.25 µM (inactive) |  | 21.3 µM (inactive) |  |  | 39.4 µM (inactive) | 58.3 µM (inactive) | 49.8 µM (inactive) | 56.5 µM (inactive) |  | 4.7 µM (inactive) | 2.67 µM (inactive) | 10.6 µM (inactive) | 0.762 µM (active) |  | 11.6 µM (inactive) | 6.56 µM (inactive)
13 | CN(C(=O)c1ccc(Cl)cc1)C(=S)N1CCN(c2ccccc2)CC1 | 87.5 | > 100 µM (inactive) |  | 77.6 µM (inactive) | > 100 µM (inactive) |  | > 100 µM (inactive) | > 100 µM (inactive) |  | > 100 µM (inactive) | > 100 µM (inactive) | > 100 µM (inactive) | 47.5 µM (inactive) | 20.1 µM (inactive) | > 100 µM (inactive) | > 100 µM (inactive) |  | 37.8 µM (inactive) | > 100 µM (inactive) | 64.3 µM (inactive)
14 | O=c1[nH]c(=O)n(C2OC(CO)C(O)C2O)cc1OCCc1ccccc1 (stereo unspecified) | > 100 | > 100 µM (inactive) | > 100 µM (inactive) | > 100 µM (inactive) | > 100 µM (inactive) | > 100 µM (inactive) | > 100 µM (inactive) | > 100 µM (inactive) | > 100 µM (inactive) | > 100 µM (inactive) | > 100 µM (inactive) | > 100 µM (inactive) | > 100 µM (inactive) |  | > 100 µM (inactive) |  | > 100 µM (inactive) | > 100 µM (inactive) | > 100 µM (inactive) | 
15 | CN1C(=O)c2ccccc2OC12C=Cc1ccc(O)cc1O2 (stereo unspecified) | 29.6 | 13.8 µM (inactive) |  | 22.3 µM (inactive) |  | 21.3 µM (inactive) | 12.7 µM (inactive) | 26.6 µM (inactive) | 19.5 µM (inactive) | 17.1 µM (inactive) | 28.1 µM (inactive) | 26.8 µM (inactive) | 23.2 µM (inactive) | 18.7 µM (inactive) | 22.6 µM (inactive) | 24.8 µM (inactive) | 16.1 µM (inactive) | 20 µM (inactive) | 16.4 µM (inactive) | 30.3 µM (inactive)
16 | CCCCCCCC(=O)NS(=O)(=O)c1ccccc1 | > 100 | > 100 µM (inactive) | > 100 µM (inactive) | > 100 µM (inactive) | > 100 µM (inactive) | > 100 µM (inactive) | > 100 µM (inactive) | > 100 µM (inactive) | > 100 µM (inactive) | > 100 µM (inactive) | > 100 µM (inactive) | > 100 µM (inactive) |  | > 100 µM (inactive) | > 100 µM (inactive) | > 100 µM (inactive) | > 100 µM (inactive) | > 100 µM (inactive) | > 100 µM (inactive) | > 100 µM (inactive)
